According to ChEMBL document CHEMBL1157125, “Modifications of C-2 on the pyrroloquinoline template aimed at the development of potent herpesvirus antivirals with improved aqueous solubility” (Bioorg Med Chem Lett, 2010):

Key:
Type in all cases: ADME, organism-based
[1] = Half life in rat; settings: in vivo
[2] = Oral bioavailability in rat; settings: in vivo
[3] = Volume of distribution at steady state in rat; settings: in vivo, read-out: Vdss
[4] = Clearance in rat; settings: in vivo

half-life [1]: 48 min | bioavailability [2]: 66% | Vd [3]: 1.7 L/kg | clearance [4]: 41.7 mL/min/kg
SMILES: O=C(NCc1ccc(Cl)cc1)c1cn2c(CCO)cc3cc(CN4CCOCC4)cc(c1=O)c32
